pIC50: −log10 of the molar value.

In the assay the target is human kinase Mps-1 (Homo sapiens (Human), UniProt P33981). The conditions noted are these: read-out: Mps-1 IC50; N-terminally GST-tagged human full length recombinant Mps-1; 10 μM ATP; 1 μM biotinylated peptide substrate; 60 min at 22° C.
Sequence of human kinase Mps-1 (P33981 whole entry): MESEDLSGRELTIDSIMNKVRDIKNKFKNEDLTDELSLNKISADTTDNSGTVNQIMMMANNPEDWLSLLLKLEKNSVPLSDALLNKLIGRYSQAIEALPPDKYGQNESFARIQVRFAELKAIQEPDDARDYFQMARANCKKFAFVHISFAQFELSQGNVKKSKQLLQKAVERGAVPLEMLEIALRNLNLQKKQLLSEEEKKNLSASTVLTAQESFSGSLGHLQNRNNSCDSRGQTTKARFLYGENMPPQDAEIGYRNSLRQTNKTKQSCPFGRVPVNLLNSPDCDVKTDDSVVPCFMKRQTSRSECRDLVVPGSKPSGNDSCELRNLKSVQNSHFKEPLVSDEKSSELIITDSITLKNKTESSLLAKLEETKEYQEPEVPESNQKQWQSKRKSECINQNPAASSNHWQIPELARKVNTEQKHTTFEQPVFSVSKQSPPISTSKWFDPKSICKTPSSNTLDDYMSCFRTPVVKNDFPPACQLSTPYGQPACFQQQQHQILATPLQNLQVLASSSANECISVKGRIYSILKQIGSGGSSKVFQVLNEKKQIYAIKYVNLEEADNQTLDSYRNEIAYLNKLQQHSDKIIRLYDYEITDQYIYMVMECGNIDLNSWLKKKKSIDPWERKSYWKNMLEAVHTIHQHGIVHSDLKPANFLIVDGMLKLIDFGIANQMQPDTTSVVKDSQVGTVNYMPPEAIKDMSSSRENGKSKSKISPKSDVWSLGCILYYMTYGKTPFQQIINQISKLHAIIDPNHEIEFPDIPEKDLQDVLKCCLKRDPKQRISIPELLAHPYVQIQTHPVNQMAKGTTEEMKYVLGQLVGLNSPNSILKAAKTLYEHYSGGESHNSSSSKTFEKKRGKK
With `O=C(NC1CC1)c1ccc(-c2cnc3c(NCCCO)nc(C#CCO)cn23)cc1` [Example 1, N-cyclopropyl-4-{8-[(3-hydroxypropyl)amino]-6-(3-hydroxyprop-1-yn-1-yl)imidazo[1,2-a]pyrazin-3-yl}benzamide], the negative logarithm of the IC50 (pIC50) is 7.51.

With `CC(C)CNc1nc(C#Cc2ccccc2)cn2c(-c3ccc(S(=O)(=O)NC4CC4)cc3)cnc12` [Example 2, N-cyclopropyl-4-[8-(isobutylamino)-6-(phenylethynyl)imidazo[1,2-a]pyrazin-3-yl]benzenesulfonamide], the pIC50 is 4.70.

For the compound `CC(C)CNc1nc(C#Cc2ccccc2F)cn2c(-c3ccc(S(=O)(=O)NC4CC4)cc3)cnc12` [Example 3, N-cyclopropyl-4-{6-[(2-fluorophenyl)ethynyl]-8-(isobutylamino)imidazo[1,2-a]pyrazin-3-yl}benzenesulfonamide], the pIC50 was 4.70.

Take `CC(C)CNc1nc(C#CCO)cn2c(-c3ccc(S(=O)(=O)NC4CC4)cc3)cnc12` [Example 4, N-cyclopropyl-4-[6-(3-hydroxyprop-1-yn-1-yl)-8-(isobutylamino)imidazo[1,2-a]pyrazin-3-yl]benzenesulfonamide]: the pIC50 was 5.74.

As to `CC(C)(O)C#Cc1cn2c(-c3ccc(C(=O)NC4CC4)cc3)cnc2c(NCCCCO)n1` [Example 8, N-cyclopropyl-4-{8-[(4-hydroxybutyl)amino]-6-(3-hydroxy-3-methylbut-1-yn-1-yl)imidazo[1,2-a]pyrazin-3-yl}benzamide], the pIC50 was 7.66.

For the compound `O=C(NC1CC1)c1ccc(-c2cnc3c(NCCCCO)nc(C#CC4(O)CCCC4)cn23)cc1` [Example 9, N-cyclopropyl-4-{8-[(4-hydroxybutyl)amino]-6-[(1-hydroxycyclopentyl)ethynyl]imidazo[1,2-a]pyrazin-3-yl}benzamide], the pIC50 is 8.00.

As to `CC(C)(O)CNc1nc(C#CCO)cn2c(-c3ccc(C(=O)NC4CC4)cc3)cnc12` [Example 10, N-cyclopropyl-4-{8-[(2-hydroxy-2-methylpropyl)amino]-6-(3-hydroxyprop-1-yn-1-yl)imidazo[1,2-a]pyrazin-3-yl}benzamide], the pIC50 was 7.42.

As for `COc1cc(C(=O)NC2CC2)ccc1-c1cnc2c(NCCCN)nc(C#CCO)cn12` [Example 11, 4-{8-[(3-Aminopropyl)amino]-6-(3-hydroxyprop-1-yn-1-yl)imidazo[1,2-a]pyrazin-3-yl}-N-cyclopropyl-3-methoxybenzamide], the pIC50 is 6.00.

In the case of `Cc1cc(-c2cnc3c(NCC(C)C)nc(C#CCO)cn23)ccc1C(=O)NC1CC1` [Example 49, N-cyclopropyl-4-{6-(3-hydroxyprop-1-yn-1-yl)-8-[(2-methylpropyl)amino]imidazo[1,2-a]pyrazin-3-yl}-2-methylbenzamide], the pIC50 is 7.85.

With `OCC#Cc1cn2c(-c3ccc(-c4cnc(C5CC5)[nH]4)cc3)cnc2c(NC[C@H](O)CO)n1` [Example 50, (2S)-3-({3-[4-(2-cyclopropyl-1H-imidazol-5-yl)phenyl]-6-(3-hydroxyprop-1-yn-1-yl)imidazo[1,2-a]pyrazin-8-yl}amino)propane-1,2-diol], the pIC50 is 6.89.

Regarding `OCC#Cc1cn2c(-c3ccc(-c4cnc(C5CC5)[nH]4)cc3)cnc2c(NCCCC(F)(F)F)n1` [Example 51, 3-{3-[4-(2-Cyclopropyl-1H-imidazol-5-yl)phenyl]-8-[(4,4,4-trifluorobutyl)amino]imidazo[1,2-a]pyrazin-6-yl}prop-2-yn-1-ol], the pIC50 is 7.82.

Take `C=C(C)CNc1nc(C#CCO)cn2c(-c3ccc(-c4cnc(C5CC5)[nH]4)cc3)cnc12` [Example 52, 3-{3-[4-(2-Cyclopropyl-1H-imidazol-5-yl)phenyl]-8-[(2-methylprop-2-en-1-yl)amino]imidazo[1,2-a]pyrazin-6-yl}prop-2-yn-1-ol]: the pIC50 was 7.89.

On to `C=CCNc1nc(C#CCO)cn2c(-c3ccc(-c4cnc(C5CC5)[nH]4)cc3)cnc12` [Example 53, 3-{8-(Allylamino)-3-[4-(2-cyclopropyl-1H-imidazol-5-yl)phenyl]imidazo[1,2-a]pyrazin-6-yl}prop-2-yn-1-ol], for which the pIC50 was 7.74.

`CC(C)CNc1nc(C#CCO)cn2c(-c3ccc(-c4cnc(C5CC5)[nH]4)cc3)cnc12` [Example 54, 3-{3-[4-(2-Cyclopropyl-1H-imidazol-5-yl)phenyl]-8-(isobutylamino)imidazo[1,2-a]pyrazin-6-yl}prop-2-yn-1-ol]: the negative-log IC50 (pIC50) was 8.08.

In the case of `CC(C)CNc1nc(C#CCO)cn2c(-c3cccc(-c4cnc(C5CC5)[nH]4)c3)cnc12` [Example 55, 3-{3-[3-(2-Cyclopropyl-1H-imidazol-5-yl)phenyl]-8-(isobutylamino)imidazo[1,2-a]pyrazin-6-yl}prop-2-yn-1-ol], the pIC50 is 6.28.

Regarding `OCC#Cc1cn2c(-c3ccc(-c4cnc(C5CC5)[nH]4)cc3)cnc2c(NCCCCO)n1` [Example 56, 4-({3-[4-(2-Cyclopropyl-1H-imidazol-5-yl)phenyl]-6-(3-hydroxyprop-1-yn-1-yl)imidazo[1,2-a]pyrazin-8-yl}amino)butan-1-ol], the pIC50 was 7.64.

For the compound `OCC#Cc1cn2c(-c3ccc(-c4cnc(C5CC5)[nH]4)cc3)cnc2c(NCCC(F)(F)F)n1` [Example 57, 3-{3-[4-(2-Cyclopropyl-1H-imidazol-5-yl)phenyl]-8-[(3,3,3-trifluoropropyl)amino]imidazo[1,2-a]pyrazin-6-yl}prop-2-yn-1-ol], the pIC50 was 8.15.

Take `OCC#Cc1cn2c(-c3ccc(-c4cnc(C5CC5)[nH]4)cc3)cnc2c(NCC2CCC2)n1` [Example 58, 3-{8-[(Cyclobutylmethyl)amino]-3-[4-(2-cyclopropyl-1H-imidazol-5-yl)phenyl]imidazo[1,2-a]pyrazin-6-yl}prop-2-yn-1-ol]: the pIC50 is 8.28.

For the compound `OCC#Cc1cn2c(-c3ccc(-c4cnc(C5CC5)[nH]4)cc3)cnc2c(NCCCO)n1` [Example 59, 3-{3-[4-(2-Cyclopropyl-1H-imidazol-5-yl)phenyl]-8-[(3-hydroxypropyl)amino]imidazo[1,2-a]pyrazin-6-yl}prop-2-yn-1-ol], the pIC50 is 7.28.

Turning to `O=S1(=O)CCN(CC#Cc2cn3c(-c4ccc(-c5cnc(C6CC6)[nH]5)cc4)cnc3c(NCCC(F)(F)F)n2)CC1` [Example 61, 3-[4-(2-cyclopropyl-1H-imidazol-5-yl)phenyl]-6-[3-(1,1-dioxidothiomorpholin-4-yl)prop-1-yn-1-yl]-N-(3,3,3-trifluoropropyl)imidazo[1,2-a]pyrazin-8-amine], the pIC50 is 8.17.

Take `Cc1cc(-c2cnc3c(NCCC(F)(F)F)nc(C#CCN4CCS(=O)(=O)CC4)cn23)ccc1C(=O)NC1CC1` [Example 62, N-cyclopropyl-4-{6-[3-(1,1-dioxidothiomorpholin-4-yl)prop-1-yn-1-yl]-8-[(3,3,3-trifluoropropyl)amino]imidazo[1,2-a]pyrazin-3-yl}-2-methylbenzamide]: the pIC50 was 8.38.

For `C#Cc1cn2c(-c3ccc(C(=O)NC)c(C)c3)cnc2c(NCCC(F)(F)F)n1` [Example 63, 4-{6-Ethynyl-8-[(3,3,3-trifluoropropyl)amino]imidazo[1,2-a]pyrazin-3-yl}-N,2-dimethylbenzamide], the pIC50 was 6.87.

For `C#Cc1cn2c(-c3ccc(C(=O)NCC)c(C)c3)cnc2c(NCCC(F)(F)F)n1` [Example 64, N-ethyl-4-{6-ethynyl-8-[(3,3,3-trifluoropropyl)amino]imidazo[1,2-a]pyrazin-3-yl}-2-methylbenzamide], the pIC50 is 6.92.

Turning to `C#Cc1cn2c(-c3ccc(C(=O)NCC(F)F)c(C)c3)cnc2c(NCCC(F)(F)F)n1` [Example 65, N-(2,2-difluoroethyl)-4-{6-ethynyl-8-[(3,3,3-trifluoropropyl)amino]imidazo[1,2-a]pyrazin-3-yl}-2-methylbenzamide], the negative logarithm of the IC50 (pIC50) was 6.67.

With `C#Cc1cn2c(-c3ccc(C(=O)NC4(C)CC4)c(C)c3)cnc2c(NCCC(F)(F)F)n1` [Example 66, 4-{6-ethynyl-8-[(3,3,3-trifluoropropyl)amino]imidazo[1,2-a]pyrazin-3-yl}-2-methyl-N-(1-methylcyclopropyl)benzamide], the pIC50 was 6.81.

As for `C#Cc1cn2c(-c3ccc(C(=O)NC4(C#N)CC4)c(C)c3)cnc2c(NCCC(F)(F)F)n1` [Example 67, N-(1-cyanocyclopropyl)-4-{6-ethynyl-8-[(3,3,3-trifluoropropyl)amino]imidazo[1,2-a]pyrazin-3-yl}-2-methylbenzamide], the negative logarithm of the IC50 (pIC50) was 6.78.

For `C#Cc1cn2c(-c3ccc(C(=O)NC4(OC)CC4)c(C)c3)cnc2c(NCCC(F)(F)F)n1` [Example 68, 4-{6-ethynyl-8-[(3,3,3-trifluoropropyl)amino]imidazo[1,2-a]pyrazin-3-yl}-N-(1-methoxycyclopropyl)-2-methylbenzamide], the pIC50 was 6.52.

On to `CNC(=O)c1ccc(-c2cnc3c(NCCC(F)(F)F)nc(C#CCO)cn23)cc1C` [Example 70, 4-{6-(3-Hydroxyprop-1-yn-1-yl)-8-[(3,3,3-trifluoropropyl)amino]imidazo[1,2-a]pyrazin-3-yl}-N,2-dimethylbenzamide], for which the pIC50 was 7.16.

`CCNC(=O)c1ccc(-c2cnc3c(NCCC(F)(F)F)nc(C#CCO)cn23)cc1C` [Example 71, N-ethyl-4-{6-(3-hydroxyprop-1-yn-1-yl)-8-[(3,3,3-trifluoropropyl)amino]imidazo[1,2-a]pyrazin-3-yl}-2-methylbenzamide]: the pIC50 is 6.82.

Regarding `Cc1cc(-c2cnc3c(NCCC(F)(F)F)nc(C#CCO)cn23)ccc1C(=O)NCC(F)F` [Example 72, N-(2,2-difluoroethyl)-4-{6-(3-hydroxyprop-1-yn-1-yl)-8-[(3,3,3-trifluoropropyl)amino]imidazo[1,2-a]pyrazin-3-yl}-2-methylbenzamide], the pIC50 was 6.89.

`Cc1cc(-c2cnc3c(NCCC(F)(F)F)nc(C#CCO)cn23)ccc1C(=O)NC1(C)CC1` [Example 73, 4-{6-(3-hydroxyprop-1-yn-1-yl)-8-[(3,3,3-trifluoropropyl)amino]imidazo[1,2-a]pyrazin-3-yl}-2-methyl-N-(1-methylcyclopropyl)benzamide]: the pIC50 was 6.92.

The values above are taken from US9199999B2, “Substituted imidazopyrazines” (Bayer Intellectual Property GmbH, priority 2010, dated 2015).
